Results: patent US6281214A, “Biphenyl derivatives” (Eisai Co., Ltd, priority 1994, dated 2001)
Structures can show the parent of a compound that is named as a salt. Where two headings read alike, the source gives them in different places.

Experiments:
Design in all cases: species or system SD rats
serotonin S2 receptor = target: T1, serotonin S2 receptor (Rattus norvegicus, UniProt P14842); experiment: serotonin S2 receptor binding test ([3H] Ketanserin Binding Test); conditions: 1 nM [3H] Ketanserin, rat cortex, 37° C., 15 minutes
T1 construct: The receptor fraction prepared from the cortex was molten and suspended; from tissue; host or cells: cerebral cortex of SD rats (membrane fraction)
How it was run: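 Rat (SD, 6–8 weeks) cortical membranes in 50 mM Tris-HCl pH 7.4 were incubated with 1 nM [3H]ketanserin for 15 min at 37 °C, then filtered and counted. Nonspecific binding was defined with methysergide. IC50 was obtained by probit analysis and converted to Ki using the Scatchard-derived Kd.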

adrenergic α1 receptor = adrenergic α1 receptor binding test ([3H] Prazosin Binding Test); conditions: 1 nM [3H] Prazosin, rat cortex, room temperature, 60 minutes
How it was run: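 Rat (SD, 6-8 weeks) cerebral cortex membranes in 50 mM Tris-HCl pH 7.4 incubated with 1 nM [3H]prazosin for 60 min at room temperature; nonspecific binding defined with phentolamine. IC50 by probit method, converted to Ki using radioligand concentration and Scatchard-derived Kd.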

dopamine D2 receptor = target: T2, dopamine D2 receptor (Rattus norvegicus, UniProt P61169); experiment: dopamine D2 receptor binding test ([3H] Spiperone Binding Test); conditions: 1 nM [3H] Spiperone, rat corpus striatum, room temperature, 60 minutes
T2 construct: the receptor fraction prepared from the corpus striatum was molten and suspended; from tissue; host or cells: corpus striatum of SD rats (membrane fraction)
How it was run: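 Rat (SD, 6–8 weeks) corpus striatum membranes in 50 mM Krebs-Tris pH 7.4 were incubated with 1 nM [3H]spiperone at room temperature for 60 minutes, with nonspecific binding defined by excess spiperone. IC50 came from probit analysis; Ki was derived using radioligand concentration and Scatchard Kd.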

[1] = read-out: Ki value, dopamine D2 receptor

T2 sequence (P61169 whole entry): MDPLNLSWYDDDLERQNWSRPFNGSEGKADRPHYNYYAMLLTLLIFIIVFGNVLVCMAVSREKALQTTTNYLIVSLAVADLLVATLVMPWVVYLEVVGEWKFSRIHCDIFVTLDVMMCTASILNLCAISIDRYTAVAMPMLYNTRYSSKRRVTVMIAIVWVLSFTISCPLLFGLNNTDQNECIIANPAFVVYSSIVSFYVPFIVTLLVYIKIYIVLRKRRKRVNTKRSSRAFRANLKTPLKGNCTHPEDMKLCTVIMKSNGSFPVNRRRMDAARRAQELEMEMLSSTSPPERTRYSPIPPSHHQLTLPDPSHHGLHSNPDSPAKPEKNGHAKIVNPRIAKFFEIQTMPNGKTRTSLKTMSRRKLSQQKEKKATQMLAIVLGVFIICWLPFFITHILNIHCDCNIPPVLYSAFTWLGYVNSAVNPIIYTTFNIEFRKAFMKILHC
T1 sequence (P14842 whole entry): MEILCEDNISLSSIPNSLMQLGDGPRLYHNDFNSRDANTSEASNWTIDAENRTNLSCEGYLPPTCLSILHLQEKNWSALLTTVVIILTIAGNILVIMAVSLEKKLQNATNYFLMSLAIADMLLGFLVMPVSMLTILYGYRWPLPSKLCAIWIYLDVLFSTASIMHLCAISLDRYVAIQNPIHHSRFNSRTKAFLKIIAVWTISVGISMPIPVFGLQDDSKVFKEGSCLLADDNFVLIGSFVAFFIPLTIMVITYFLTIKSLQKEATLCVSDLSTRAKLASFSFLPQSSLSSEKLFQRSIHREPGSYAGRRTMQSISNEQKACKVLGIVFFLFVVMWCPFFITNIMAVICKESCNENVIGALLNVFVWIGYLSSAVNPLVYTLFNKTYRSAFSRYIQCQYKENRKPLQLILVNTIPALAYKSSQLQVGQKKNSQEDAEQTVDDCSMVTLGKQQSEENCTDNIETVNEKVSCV

SMILES	Ki (serotonin S2 receptor)	Ki (adrenergic α1 receptor; hydrochloride)	Ki (dopamine D2 receptor; [1])	Ki (adrenergic α1 receptor)	Ki (dopamine D2 receptor; Ki value, dopamine D2 receptor)
CCCS(=O)(=O)Nc1cc(N2CCN(CC)CC2)cc(-c2ccccc2C)c1Cl [Example 17, 1-ethyl-4-[3-(2-tolyl)-4-chloro-5-propanesulfonylamino]phenylpiperazine hydrochloride]	374 nM	550 nM	> 100 nM	–	–
CCCS(=O)(=O)Nc1cc(N2CCN(CC)CC2)cc(-c2ccc(Cl)cc2Cl)c1Cl [Example 189, 1-Ethyl-4-[3-(2,4-dichlorophenyl)-4-chloro-5-propanesulfonyamino]phenylpiperazine]	> 100 nM	–	1.51 nM	32.5 nM	–
CCN1CCN(c2cc(-c3ccccc3)c(OC)c(C(F)(F)CC)c2)CC1 [Example 186, 1-Ethyl-4-[3-phenyl-4-methoxy-5-(1,1-difluoropropyl)]phenylpiperazine]	4.29 nM	–	2.96 nM	> 1000 nM	–
CCC(F)c1cc(N2CCN(CC)CC2)cc(-c2ccccc2OC)c1Cl (stereo not drawn) [Example 143, 1-Ethyl-4-[3-(2-methoxyphenyl)-4-chloro-5-(1-fluoropropyl)]phenylpiperazine]	156 nM	–	16.9 nM	> 1000 nM	–
CCN1CCN(c2cc(-c3ccc(F)cc3)c(OC)c(C(C)C)c2)CC1 [Example 78, 1Ethyl-4-[3-(4-fluorophenyl)-4-methoxy-5-isopropyl]phenylpiperazine]	33.2 nM	–	4.22 nM	74.8 nM	–
CCN1CCN(c2cc(C(=O)c3ccccn3)c(OC)c(-c3ccccc3)c2)CC1 [Example 109, 1-Ethyl-4-[3-phenyl-4-methoxy-5-(2-pyridylcarbonyl)]phenylpiperazine]	230 nM	–	> 1000 nM	> 1000 nM	–
CCN1CCN(c2cc(C(=O)CC3CC3)c(OC)c(-c3ccccc3)c2)CC1 [Example 108, Ethyl-4-(3-phenyl-4-methoxy-5-cyclopropaneacetyl)phenylpiperazine]	4 nM	–	162 nM	408 nM	–
CCN1CCN(c2cc(CCF)c(OC)c(-c3ccccc3)c2)CC1 [Example 76, 1-Ethyl-4-[3-phenyl-4-methoxy-5-(2-fluoroetheyl)]phenylpiperazine]	145 nM	–	50.1 nM	112 nM	–
CCCNS(=O)(=O)c1cc(N2CCN(CC)CC2)cc(-c2ccccc2C)c1Cl [Example 161, 1-Ethyl-4-[3-(2-tolyl)-4-chloro-5-propylaminosulfonyl]phenylpiperazine]	22.5 nM	–	9.8 nM	776 nM	–
CCCC(F)c1cc(N2CCN(CC)CC2)cc(-c2ccccc2)c1OC (stereo not drawn) [Example 47, 1-Ethyl-4-[3-phenyl-4-methoxy-5-(1-fluorobutyl)]phenylpiperazine]	5.72 nM	–	12.9 nM	> 1000 nM	–
CCN1CCN(c2cc(-c3ccccc3C)c(Cl)c(S(=O)(=O)Nc3ccccc3)c2)CC1 [Example 166, 1-Ethyl-4-[3-(2-tolyl)-4-chloro-5-phenylaminosulfony]phenylpiperazine]	5.42 nM	–	1.42 nM	> 1000 nM	–
CCC(C)c1cc(N2CCN(CC)CC2)cc(-c2ccccc2)c1Cl (stereo not drawn) [Example 147, 1-Ethyl-4-[3-phenyl-4-chloro-5-(1-methylpropyl)]phenylpiperazine]	15.1 nM	–	0.45 nM	33.2 nM	–
C/C=C/c1cc(N2CCN(CC)CC2)cc(-c2ccccc2)c1OC [Example 100, 1-Ethyl-4-[3-phenyl-4-methoxy-5-(1-propenyl)]phenylpiperazine hydrochloroide]	827 nM	–	82.7 nM	846 nM	–
CCN1CCN(c2cc(NS(=O)(=O)CC)c(Cl)c(-c3ccccc3Cl)c2)CC1 [Example 31, 1-Ethyl-4-[3-(2-chlorophenyl)-4-chloro-5-ethanesulfonylamino]phenylpiperazine]	12.4 nM	–	0.69 nM	36.1 nM	–
COc1c(C(=O)Cc2ccccc2)cc(N2CCN(CCO)CC2)cc1-c1ccccc1 [Example 128, 1-(2-Hydroxyethyl)-4-(3-phenyl-4-methoxy-5-phenylacetyl)phenylpiperazine]	1.16 nM	–	46.1 nM	> 1000 nM	–
COc1c(-c2ccccc2)cc(N2CCN(CCO)CC2)cc1-c1ccccc1 [Example 64]	284 nM	–	384 nM	459 nM	–
CCC(=O)c1cc(N2CCN(CC)CC2)cc(-c2ccccc2)c1OC [Example 82, 1-Ethyl-4-(3-phenyl-4methoxy-5-propionyl)phenylpiperazine]	10.7 nM	–	39.1 nM	723 nM	–
CCC(=O)c1cc(-c2ccccc2)cc(N2CCN(CC)CC2)c1 [Example 130, 1-Ethyl-4-(3-phenyl-5-propionyl)phenylpiperazine]	58 nM	–	–	70.4 nM	29.7 nM

SMILES	Ki (serotonin S2 receptor)	Ki (adrenergic α1 receptor; hydrochloride)	Ki (dopamine D2 receptor; [1])	Ki (adrenergic α1 receptor)	Ki (dopamine D2 receptor; Ki value, dopamine D2 receptor)
CCN1CCN(c2cc(C(=O)OC)c(OC)c(-c3ccccc3)c2)CC1 [Example 74, 1-Ethyl-4-(3-phenyl-4-methoxy-5-methoxycarbonyl)phenylpiperazine]	374 nM	–	> 1000 nM	> 1000 nM	–
CCCOCc1cc(N2CCN(CC)CC2)cc(-c2ccccc2C)c1Cl [Example 168, 1-Ethyl-4-[3-(2-tolyl)-4-chloro-5-propoxymethyl]phenylpiperazine]	180 nM	–	31.9 nM	> 1000 nM	–
CCN1CCN(c2cc(CCCOCOC)c(OC)c(-c3ccccc3)c2)CC1 [Example 69, 1-Ethyl-4-[3-phenyl-4-methoxy-5-(3-methoxymethoxypropyl)]phenylpiperazine]	67.1 nM	–	171 nM	321 nM	–
CCC(F)c1cc(N2CCN(C)CC2)cc(-c2ccccc2CO)c1Cl (stereo not drawn) [Example 207]	81.1 nM	–	240 nM	> 1000 nM	–
CCCS(=O)(=O)Nc1cc(N2CCN(C)CC2)cc(-c2ccccc2Cl)c1Cl [Example 35, 1-Methyl-4-[3-(2-chloropheyl)-4-chloro-5-propanesulfonylamino]phenylpiperazine]	3.37 nM	–	0.5 nM	17 nM	–
CCCS(=O)(=O)c1cc(N2CCN(CC)CC2)cc(-c2ccccc2)c1OC [Example 170, 1-Ethyl-4-(3-phenyl-4-methoxy-5-propanesulfonyl)phenylpiperazine]	2.77 nM	–	34.2 nM	> 1000 nM	–
CCC(=O)c1cc(N2CCN(CC)CC2)cc(-c2ccccc2)c1Cl [Example 140, 1-Ethyl-4-(3-phenyl-4-chloro-5-propionyl)phenylpiperazine]	26.2 nM	–	2.97 nM	95.5 nM	–
CCCS(=O)(=O)Nc1cc(N2CCN(CC)CC2)cc(-c2ccccc2CC)c1Cl [Example 194, 1-Ethyl-4-[3-(2-ethylphenyl)-4-chloro-5-propanesulfonylamino]phenylpiperazine]	4.45 nM	–	0.83 nM	> 1000 nM	–
CCC(O)c1cc(N2CCN(CC)CC2)cc(-c2ccccc2)c1OC (stereo not drawn) [Example 83, 1-Ethyl-4-[3-phenyl-4methoxy-5-(1-hydroxypropyl)]phenylpiperazine]	84.5 nM	–	485 nM	> 1000 nM	–
CCN1CCN(c2ccc(O)c(-c3ccccc3)c2)CC1 [Example 62, 1-Ethyl-4-(3-phenyl-4-hydroxy)phenylpiperazine]	> 1000 nM	–	> 1000 nM	> 1000 nM	–
C=CCCC(F)c1cc(N2CCN(CC)CC2)cc(-c2ccccc2)c1OC (stereo not drawn) [Example 46, 1-Ethyl-4-{3-phenyl-4-methoxy-5-[1-fluoro-(4-pentenyl)]}phenylpiperazine]	2.16 nM	–	9.78 nM	> 1000 nM	–
CCCc1cc(N2CCN(CCF)CC2)cc(-c2ccc(F)cc2)c1OC [Example 72, 1-(2-Fluoroethyl)-4-[3-(4-fluorophenyl)-4-methoxy-5-propyl]phenylpiperazine]	108 nM	–	–	270 nM	50.3 nM
CCN1CCN(c2cc(CCO)c(OC)c(-c3ccccc3)c2)CC1 [Example 66, 1-Ethyl-4-[3-phenyl-4-methoxy-5-(2-hydroxyethyl)]phenylpiperazine]	65.9 nM	–	18.3 nM	127 nM	–
CCN1CCN(c2cc(COCc3ccccc3)c(Cl)c(-c3ccccc3C)c2)CC1 [Example 167, 1-Ethyl-4-[3-(2-tolyl)-4-chloro-5-benzyloxymethyl]phenylpiperazine]	23.8 nM	–	45.4 nM	> 1000 nM	–
CCN1CCN(c2cc(COCc3ccncc3)c(Cl)c(-c3ccccc3C)c2)CC1 [Example 169, 1-Ethyl-4-[3-(2-tolyl)-4-chloro-5-(4-pyridyl)methoxymethyl]phenylpiperazine]	108 nM	–	41.8 nM	> 1000 nM	–
CCN1CCN(c2cc(-c3ccc(F)cc3)c(OC)c(S(=O)(=O)CC)c2)CC1 [Example 40]	3.64 nM	–	9.25 nM	> 1000 nM	–
CCC(F)c1cc(N2CCN(CCCc3ccncc3)CC2)cc(-c2ccccc2C)c1Cl (stereo not drawn) [Example 150]	97.1 nM	–	7.98 nM	> 1000 nM	–
